According to ChEMBL document CHEMBL1150086, “New steroid acids from Antrodia cinnamomea, a fungal parasite of Cinnamomum micranthum” (J Nat Prod, 1995):
Converted amounts (≈) assume the structure as drawn.

These compounds were tested on P388 (assay: Cytotoxicity against mouse P388 cells after 72 hrs). Details: P388, 72 h.
Format: functional, cell-based

How did the IC50 turn out when `CO[C@H](C(=O)[C@@H](O)[C@@H](C)O)[C@@H]1Cc2cc3cc(O[C@H]4C[C@@H](O[C@@H]5C[C@@H](O)[C@H](O)[C@@H](C)O5)[C@H](O)[C@@H](C)O4)c(C)c(O)c3c(O)c2C(=O)[C@H]1O[C@H]1C[C@@H](O[C@@H]2C[C@@H](O)[C@@H](O[C@@H]3C[C@](C)(O)[C@H](O)[C@@H](C)O3)[C@@H](C)O2)[C@H](O)[C@@H](C)O1` [PLICAMYCIN] was run?
The IC50 was 0.06 µg/mL (≈ 0.0553 µM).

Which IC50 does the source give for `C=C(CC[C@@H](C)[C@H]1CC[C@H]2C3=C(C(=O)C[C@]12C)[C@@]1(C)CCC(=O)[C@@H](C)[C@@H]1CC3=O)C(C)C(=O)O` (stereo partly drawn) [ZHANKUIC ACID A] here?
The IC50 was 1.8 µg/mL (≈ 3.84 µM).

`C=C(CC[C@@H](C)[C@H]1CC[C@H]2C3=C(C(=O)[C@H](O)[C@]12C)[C@@]1(C)CC[C@@H](O)[C@@H](C)[C@@H]1CC3=O)C(C)C(=O)O` (stereo partly drawn) [ZHANKUIC ACID C] was tested. Which IC50 did it give?
Its IC50 is 5.4 µg/mL (≈ 11.1 µM).
